Results taken from article PMC3280264 (PLoS ONE, 2012).

Legend:
Human SGLT2 = Human SGLT2 (Homo sapiens, UniProt P31639); assay: cell-based
Protocol: (§1) Sodium-dependent Glucose Uptake in Chinese Hamster Ovary (CHO) Cells Expressing SGLT1 and SGLT2 Co-transporters Parental CHO-K (CHOK) cells (commonly used mammalian cells for gene overexpression studies) expressing human or mouse SGLT1 and SGLT2 were utilized in this study. Cells were seeded into 96-well plates. Cells were then washed one time with 0.15 ml assay buffer (137 mM NaCl, 5 mM KCl, 1 mM CaCl2, 1 mM MgCl2, 50 mM HEPES, pH 7.4) at 37°C. […] Then, 5 µl of 6 mM alpha-methyl-D-glucopyranoside (AMG, a selective SGLT1/2 substrate)/^14C-AMG (0.07 µCi) was added to the cells and incubated at 37°C for 2 hours. Next, the cells were washed 3 times with 0.15 ml ice-cold phosphate-buffered saline (PBS). After the final wash was aspirated, 50 µl of microscint 20 (Packard, Meriden, Connecticut, USA) was added. The plate was counted by TopCount (Packard, Meriden, Connecticut, USA).
(§2) Statistical analysis was performed using the program Prism (Graphpad, Monrovia, California, USA). Differences between groups were evaluated using 1-way […] with Dunnett's multiple comparison test or student's t-test (unpaired), as appropriate. Probabilities less than 5% (P<0.05) were considered to be statistically significant. […] All data are presented as mean ± standard error.

Mouse SGLT2 = Mouse SGLT2 (Mus musculus, UniProt Q923I7); assay: cell-based
Protocol: as §1, §2

Mouse SGLT1 = target: T1, Mouse SGLT1 (Mus musculus, UniProt Q8C3K6); assay: 14C-AMG uptake in CHOK cells expressing mouse SGLT1; assay type: cell-based; conditions: CHO-mSGLT1 cells, mean of 2 experiments
T1 construct: expressed in transfected cells; host or cells: CHO-K (CHOK) cells
T1 sequence (Q8C3K6 1-665): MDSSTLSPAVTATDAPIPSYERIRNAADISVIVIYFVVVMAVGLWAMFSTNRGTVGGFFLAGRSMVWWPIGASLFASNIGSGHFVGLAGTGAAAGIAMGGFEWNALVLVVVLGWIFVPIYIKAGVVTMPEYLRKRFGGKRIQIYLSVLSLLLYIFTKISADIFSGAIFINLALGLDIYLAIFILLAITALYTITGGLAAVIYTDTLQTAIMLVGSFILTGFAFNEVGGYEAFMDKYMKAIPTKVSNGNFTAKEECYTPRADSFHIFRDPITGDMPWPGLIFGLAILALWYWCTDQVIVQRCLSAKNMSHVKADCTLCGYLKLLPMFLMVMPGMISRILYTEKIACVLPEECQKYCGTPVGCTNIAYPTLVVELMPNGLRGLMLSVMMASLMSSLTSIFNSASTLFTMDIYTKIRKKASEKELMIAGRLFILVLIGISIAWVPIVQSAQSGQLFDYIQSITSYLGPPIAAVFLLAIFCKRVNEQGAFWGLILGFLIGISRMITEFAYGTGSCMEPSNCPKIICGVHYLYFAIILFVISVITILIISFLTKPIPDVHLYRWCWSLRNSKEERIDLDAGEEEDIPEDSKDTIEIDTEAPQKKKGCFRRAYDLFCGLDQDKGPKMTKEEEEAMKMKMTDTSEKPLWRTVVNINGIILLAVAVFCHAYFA
Protocol: Cells were seeded into 96-well plates.
All data are presented as mean ± standard error.

Human SGLT2, sequence (P31639 whole entry): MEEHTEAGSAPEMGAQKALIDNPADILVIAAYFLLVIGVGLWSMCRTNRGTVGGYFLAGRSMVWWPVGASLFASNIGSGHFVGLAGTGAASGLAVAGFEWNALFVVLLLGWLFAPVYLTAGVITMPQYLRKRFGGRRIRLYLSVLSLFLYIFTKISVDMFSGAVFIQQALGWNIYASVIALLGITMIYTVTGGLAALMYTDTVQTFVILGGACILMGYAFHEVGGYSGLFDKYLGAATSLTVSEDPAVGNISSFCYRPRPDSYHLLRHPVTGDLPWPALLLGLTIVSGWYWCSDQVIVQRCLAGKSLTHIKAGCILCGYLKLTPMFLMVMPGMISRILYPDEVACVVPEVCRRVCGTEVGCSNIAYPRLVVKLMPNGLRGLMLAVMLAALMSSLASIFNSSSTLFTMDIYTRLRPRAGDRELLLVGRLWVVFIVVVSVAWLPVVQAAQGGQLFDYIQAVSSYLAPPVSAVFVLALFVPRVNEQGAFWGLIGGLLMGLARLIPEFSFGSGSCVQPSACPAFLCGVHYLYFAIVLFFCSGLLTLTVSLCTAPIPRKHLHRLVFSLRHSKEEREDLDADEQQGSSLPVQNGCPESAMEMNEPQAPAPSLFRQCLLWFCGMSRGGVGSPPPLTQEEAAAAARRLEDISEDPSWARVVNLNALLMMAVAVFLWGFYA
Mouse SGLT2, sequence (Q923I7 whole entry): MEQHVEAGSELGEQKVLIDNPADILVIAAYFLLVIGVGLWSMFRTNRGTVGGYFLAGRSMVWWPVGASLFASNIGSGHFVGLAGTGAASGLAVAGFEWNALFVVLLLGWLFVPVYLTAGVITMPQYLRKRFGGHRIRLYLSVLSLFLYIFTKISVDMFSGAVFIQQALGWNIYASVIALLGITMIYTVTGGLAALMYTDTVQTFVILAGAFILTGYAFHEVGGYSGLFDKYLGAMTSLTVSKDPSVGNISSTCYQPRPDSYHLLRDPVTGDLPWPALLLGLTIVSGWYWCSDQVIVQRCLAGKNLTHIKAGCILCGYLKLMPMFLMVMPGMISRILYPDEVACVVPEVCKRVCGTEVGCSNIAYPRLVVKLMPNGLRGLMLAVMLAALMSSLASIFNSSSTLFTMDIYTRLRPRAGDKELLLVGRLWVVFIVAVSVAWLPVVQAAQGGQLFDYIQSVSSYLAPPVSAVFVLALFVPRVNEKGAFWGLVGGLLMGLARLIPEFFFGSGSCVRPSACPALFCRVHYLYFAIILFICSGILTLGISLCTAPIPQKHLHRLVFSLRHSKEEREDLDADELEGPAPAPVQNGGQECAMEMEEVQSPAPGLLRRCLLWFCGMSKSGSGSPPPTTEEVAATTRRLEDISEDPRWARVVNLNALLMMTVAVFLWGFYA

IC50 (Human SGLT2): 4.4 ± 1.2 nM
IC50 (Mouse SGLT2): 2 nM
IC50 (Mouse SGLT1): > 1000 nM
Structure (SMILES): Cc1ccc([C@@H]2O[C@H](CO)[C@@H](O)[C@H](O)[C@H]2O)cc1Cc1ccc(-c2ccc(F)cc2)s1 [canagliflozin, Canagliflozin]
